Results on 15 compounds are retold here after US4308273A, “1,6-Naphthyridine derivatives, and antidinic and cerebral circulation improver containing such derivatives” (Nippon Kayaku Kabushiki Kaisha, priority 1978, dated 1981).

Data set [1] is described as follows: Cerebral vasodilating action: vertebral arterial flow, intra-arterial injection. It counts as in vivo. The settings on record: Canis lupus familiaris; dogs, 1 mg intraarterially; read-out: Percent increase in vertebral arterial flow when injected intraarterially. On the procedure:
A: Percent increase in vertebral arterial flow when injected
intraarterially (1 mg) to dogs.
(1) For the experimental evaluation of cerebral vasodilating action, the canine vertebral arterial preparation was used. The carotid arterial blood was led to the vertebral artery by a short extracorporeal loop. The vertebral arterial flow was measured by an electromagnetic flow transducer inserted in the circuit. The action of the compounds on the vertebral arterial flow was expressed by percent increase when 1 mg of each compound was injected intra-arterially.

The nature of data set [2]: Effects of intravenous injection on mean arterial pressure, heart rate and vertebral arterial flow in anesthetized dogs. The settings on record: for change in vivo at 1 mg/kg: Canis lupus familiaris, iv, read-out: Percent increase in vertebral arterial flow when injected intravenously; for Changes in heart rate when injected intravenously / Changes in systemic blood pressure when injected intravenously: anesthetized dogs, 1 mg/kg intravenously.
Method: Pressure in the carotid artery was measured by a pressure transducer and mean arterial pressure was obtained by electrical integration. Heart rate was obtained by a cardiotachometer, triggered by a signal from the pressure pulse. The vertebral arterial flow was measured by fitting an electromagnetic flow transducer. The action on systemic mean arterial pressure, heart rate and vertebral arterial flow were represented by Δ mmHg, Δ beats/min and percent increase.

Data set [3] in a line: Inhibition of spontaneous nystagmus produced by unilateral destruction of the labyrinth (anti-vertigo action). Format: in vivo. The note with it: cats, 12 mg/kg injected intravenously; for inhibition at 12 mg/kg: Felis catus, iv, read-out: Effect of compounds on the nystagmus expressed as inhibitory percentage. On the procedure: (1) It is well known that vertigo resulting from the disturbance of the peripheral labyrinth is accompanied by nystagmus. So, we acutely produced the spontaneous nystagmus by unilateral destruction of the labyrinth in cats and used it as an experimental model of vertigo. a pair of Ag--AgCl cup electrodes was placed laterally to both orbits and an indifferent electrode on the forehead. The nystagmus was recorded through an amplifier. The inhibitory effect of the compounds on the nystagmus was expressed by [formula] where A is the frequency of the nystagmus in ten seconds before administration of the compounds and B is the frequency of the nystagmus at the maximum inhibitory point after administration. The duration of the effect was also measured. Compounds dissolved in saline were injected into the femoral vein. Betahistine and diphenidol were used as standard drugs.
A: Doses of compounds injected intraveneously.
B: Effect of compounds on the nystagmus expressed as inhibitory
C: Duration of the effect of compounds

The nature of data set [4]: Acute toxicity (LD50) by intraperitoneal injection. The settings on record: mouse, in vivo, ip. As for the experimental part: LD50 values of the compounds by intraperitoneal injection in mice were determined.
[5] abbreviates: male mice, intraperitoneal injection (Table 3).
[6] abbreviates: mice, intraperitoneal injection (Table 4).

Take `Clc1ccc(CN2CCc3ncccc3C2)cc1` [Compound 33]: the change in vivo at 1 mg in data set [1] amounted to 75%. In data set [2], the change in vivo at 1 mg/kg came to 30%, the “Changes in heart rate when injected intravenously” value (shortened to “Changes in heart rate”) is reported as “+8 Δ beats/min” and the “Changes in systemic blood pressure when injected intravenously” value (“Changes in systemic blood pressure” below) is -23.5 Δ mmHg.

As usually defined, the LD50 is the dose expected to kill half of the subjects tested. Low values mean a more toxic substance, high ones a less toxic substance. `c1ccc(CCCN2CCc3ncccc3C2)cc1` [Compound 57]: in data set [3], the inhibition at 12 mg/kg was 97% and the “Duration of the effect of compounds (nystagmus)” value (from here on “Duration”) is on record as 10 min. For the same compound, the LD50 in data set [4] (setting [5]) worked out at 159 mg/kg.

For `CCc1ccc(CN2CCc3ncccc3C2)cc1` [Compound 35], the change in vivo at 1 mg in data set [1] came out at 56%. Also, in data set [2], the change in vivo at 1 mg/kg amounted to 27.3%, the “Changes in heart rate” value is listed as “+8 Δ beats/min” and the “Changes in systemic blood pressure” value is -21.7 Δ mmHg.

On to `Clc1ccc(C=CCN2CCc3ncccc3C2)cc1Cl` [Compound 71], for which the change in vivo at 1 mg in data set [1] worked out at 116%. Also, in data set [2], the change in vivo at 1 mg/kg is 44.4%, the “Changes in heart rate” value is recorded as “+40 Δ beats/min” and the “Changes in systemic blood pressure” value is recorded as -38.3 Δ mmHg. The compound further returned an LD50 in data set [4] (setting [6]) of 199 mg/kg.

On to `c1ccc(OCCCN2CCc3ncccc3C2)cc1` [Compound 27], for which, in data set [3], the inhibition at 12 mg/kg came out at 90% and the “Duration” value is 30 min. The LD50 in data set [4] (setting [5]) was 208 mg/kg.

For the compound `CC(C)=CCC/C(C)=C/CN1CCc2ncccc2C1` [Compound 20], the change in vivo at 1 mg in data set [1] was found to be 69%. For the same compound, in data set [2], the change in vivo at 1 mg/kg was 20%, the “Changes in heart rate” value is on record as “+12 Δ beats/min” and the “Changes in systemic blood pressure” value is reported as -11.7 Δ mmHg. In data set [4] (setting [6]), this compound returned an LD50 of 292 mg/kg.

As for `c1ccc(CCN2CCc3ncccc3C2)cc1` [Compound 55], in data set [3], the inhibition at 12 mg/kg was determined as 92% and the “Duration” value worked out at 5 min. In data set [4] (setting [5]), this compound had an LD50 of 219 mg/kg.

Take `Clc1ccccc1C=CCN1CCc2ncccc2C1` [Compound 61]: in data set [1], the change in vivo at 1 mg is 84%. In data set [2], the change in vivo at 1 mg/kg was found to be 29.2%, the “Changes in heart rate” value is “+24 Δ beats/min” and the “Changes in systemic blood pressure” value is reported as -20.0 Δ mmHg.

In the case of `C=CCCN1CCc2ncccc2C1` [Compound 14, 5,6,7,8-tetrahydro-6-(3-butenyl)-1,6-naphthyridine], in data set [3], the inhibition at 12 mg/kg is 77% and the “Duration” value is on record as 28 min. Also, the LD50 in data set [4] (setting [5]) turned out to be 239 mg/kg.

As to `c1cnc2c(c1)CN(CC1CCC1)CC2` [Compound 23], in data set [3], the inhibition at 12 mg/kg is 83% and the “Duration” value came out at 8 min. This compound also had an LD50 in data set [4] (setting [5]) of 214 mg/kg.

In the case of `CC(C)CCN1CCc2ncccc2C1` [Compound 7], in data set [3], the inhibition at 12 mg/kg came to 85% and the “Duration” value was 6 min. Moreover, the 50% lethal dose (LD50) in data set [4] (setting [5]) is 219 mg/kg.

As to `CCCCCC=CCN1CCc2ncccc2C1` [Compound 19], in data set [3], the inhibition at 12 mg/kg worked out at 65% and the “Duration” value was 25 min. Further, the LD50 in data set [4] (setting [5]) was 304 mg/kg.

Consider `CCCCCN1CCc2ncccc2C1` [Compound 6, 5,6,7,8-tetrahydro-6-n-amyl-1,6-naphthyridine], for which, in data set [3], the inhibition at 12 mg/kg turned out to be 86% and the “Duration” value is reported as 10 min. The same compound had an LD50 in data set [4] (setting [5]) of 165 mg/kg.

As to `O=[N+]([O-])c1ccccc1C=CCN1CCc2ncccc2C1` [Compound 67], in data set [1], the change in vivo at 1 mg turned out to be 75%. Moreover, in data set [2], the change in vivo at 1 mg/kg was determined as 40%, the “Changes in heart rate” value is reported as “+16 Δ beats/min” and the “Changes in systemic blood pressure” value is recorded as -31.7 Δ mmHg.

Regarding `CC(C)(C)c1ccc(CN2CCc3ncccc3C2)cc1` [Compound 38], the change in vivo at 1 mg in data set [1] turned out to be 78%. For the same compound, in data set [2], the change in vivo at 1 mg/kg is 28.6% and the “Changes in systemic blood pressure” value is -11.7 Δ mmHg.
